# Measurements: patent US6737383B1, “Herbicidal oxadiazolidines” (priority 1999, dated 2004)
# Legend:
# bedstraw = assay: Test B pre/postemergence bedstraw; type: in vivo, Galium aparine
# Method in brief: (§1)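 Test chemicals in a non-phytotoxic solvent mixture with surfactant were sprayed preemergence onto planted seeds and postemergence onto plants 2 to 18 cm tall (1- to 4-leaf stage). After twelve to sixteen days in a greenhouse, injury was visually rated against untreated controls from 0 (no effect) to 10 (complete control).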
# blackgrass = assay: Test B pre/postemergence blackgrass; type: in vivo, Alopecurus myosuroides
# Method in brief: as §1
# surinam grass = assay: Test B pre/postemergence surinam grass; type: in vivo, Brachiaria decumbens
# Method in brief: as §1
# cocklebur = assay: Test B pre/postemergence cocklebur; type: in vivo, Xanthium strumarium
# Method in brief: as §1
# corn = assay: Test B pre/postemergence corn; type: in vivo, Zea mays
# Method in brief: as §1
# crabgrass = assay: Test B pre/postemergence crabgrass; type: in vivo, Digitaria sanguinalis
# Method in brief: as §1
# morningglory = assay: Test B pre/postemergence morningglory; type: in vivo, Ipomoea hederacea
# Method in brief: as §1
# pigweed = assay: Test B pre/postemergence pigweed; type: in vivo, Amaranthus retroflexus
# Method in brief: as §1
# rape = assay: Test B pre/postemergence rape; type: in vivo, Brassica napus
# Method in brief: as §1
# sugar beet = assay: Test B pre/postemergence sugar beet; type: in vivo, Beta vulgaris
# Method in brief: as §1
# velvetleaf = assay: Test B pre/postemergence velvetleaf; type: in vivo, Abutilon theophrasti
# Method in brief: as §1
# wheat = assay: Test B pre/postemergence wheat; type: in vivo, Triticum aestivum
# Method in brief: as §1
# wild oat = assay: Test B pre/postemergence wild oat; type: in vivo, Avena fatua
# Method in brief: as §1
# purple nutsedge = assay: Test B pre/postemergence purple nutsedge; type: in vivo, Cyperus rotundus
# Method in brief: as §1
# smallflower flatsedge = assay: Test B flood test smallflower flatsedge; type: in vivo, Cyperus difformis
# Method in brief: (§2)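 Flood test on plants grown to the 2-leaf stage; treated plants kept in greenhouse twelve to sixteen days, then visually rated against controls on a 0 (no effect) to 10 (complete control) scale.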
# duck salad = assay: Test B flood test duck salad; type: in vivo, Heteranthera limosa
# Method in brief: as §2
# [1] = Postemergence, Rate 62 g/ha, scale 0 to 10, 0 is no effect, 10 is complete control
# [2] = Preemergence, Rate 62 g/ha, scale 0 to 10 (0 no effect, 10 complete control)
# [3] = Preemergence, Rate 125 g/ha, scale of 0 to 10 where 0 is no effect and 10 is complete control
# [4] = Preemergence, Rate 250 g/ha, scale 0 to 10 (0 no effect, 10 complete control)
# [5] = Preemergence, Rate 500 g/ha, scale of 0 to 10 where 0 is no effect and 10 is complete control
# [6] = Postemergence, Rate 125 g/ha, scale of 0 to 10 where 0 is no effect and 10 is complete control
# [7] = Postemergence, Rate 250 g/ha, scale of 0 to 10, 0 is no effect, 10 is complete control
# [8] = Postemergence, Rate 500 g/ha, scale of 0 to 10 where 0 is no effect and 10 is complete control
# [9] = Rate 62 g/ha, flood test species, Pre-emergence, visual evaluation after twelve to sixteen days
# [10] = Rate 125 g/ha, under heading Pre-emergence, flood test species, visual evaluation after twelve to sixteen days
# [11] = Rate 250 g/ha, Pre-emergence (flood test species), scale 0 to 10, 0 is no effect, 10 is complete control
# [12] = Rate 500 g/ha, Pre-emergence section of Table B, 0 to 10 scale (0 no effect, 10 complete control)
structure (smiles),measurement,setting,value
CCOC(Cn1c(=O)on(C(=O)N(c2ccc(F)cc2F)C(C)C)c1=O)OCC [Compound 630],"Plant response rating, Bedstraw",bedstraw; [1],0
same,Bedstraw plant response rating,bedstraw; [2],0
same,Bedstraw plant response rating,bedstraw; [3],0
same,"Plant response rating, Bedstraw",bedstraw; [4],0
same,"Plant response rating, Bedstraw",bedstraw; [5],7
same,"Plant response rating, Blackgrass",blackgrass; [1],0
same,"Plant response rating, Blackgrass",blackgrass; [6],0
same,Blackgrass plant response rating,blackgrass; [7],3
same,"Plant response rating, Blackgrass",blackgrass; [8],9
same,Blackgrass plant response rating,blackgrass; [2],5
same,Blackgrass plant response rating,blackgrass; [3],8
same,"Plant response rating, Blackgrass",blackgrass; [4],8
same,"Plant response rating, Blackgrass",blackgrass; [5],10
same,"Plant response rating, B. signalgrass",surinam grass; [1],0
same,"Plant response rating, B. signalgrass",surinam grass; [6],0
same,B. signalgrass plant response rating,surinam grass; [7],1
same,"Plant response rating, B. signalgrass",surinam grass; [8],3
same,B. signalgrass plant response rating,surinam grass; [2],0
same,B. signalgrass plant response rating,surinam grass; [3],3
same,"Plant response rating, B. signalgrass",surinam grass; [4],7
same,"Plant response rating, B. signalgrass",surinam grass; [5],8
same,"Plant response rating, Cocklebur",cocklebur; [1],0
same,"Plant response rating, Cocklebur",cocklebur; [6],0
same,Cocklebur plant response rating,cocklebur; [7],0
same,"Plant response rating, Cocklebur",cocklebur; [8],0
same,Cocklebur plant response rating,cocklebur; [2],0
same,Cocklebur plant response rating,cocklebur; [3],0
same,"Plant response rating, Cocklebur",cocklebur; [5],0
same,"Plant response rating, Corn",corn; [1],0
same,"Plant response rating, Corn",corn; [6],0
same,Corn plant response rating,corn; [7],2
same,"Plant response rating, Corn",corn; [8],5
same,Corn plant response rating,corn; [2],0
same,Corn plant response rating,corn; [3],0
same,"Plant response rating, Corn",corn; [4],3
same,"Plant response rating, Corn",corn; [5],5
same,"Plant response rating, Crabgrass",crabgrass; [1],1
same,"Plant response rating, Crabgrass",crabgrass; [6],5
same,Crabgrass plant response rating,crabgrass; [7],8
same,Crabgrass plant response rating,crabgrass; [2],7
same,Crabgrass plant response rating,crabgrass; [3],8
same,"Plant response rating, Crabgrass",crabgrass; [4],9
same,"Plant response rating, Crabgrass",crabgrass; [5],9
same,"Plant response rating, Morningglory",morningglory; [1],1
same,"Plant response rating, Morningglory",morningglory; [6],2
same,Morningglory plant response rating,morningglory; [7],2
same,"Plant response rating, Morningglory",morningglory; [8],4
same,Morningglory plant response rating,morningglory; [2],0
same,Morningglory plant response rating,morningglory; [3],0
same,"Plant response rating, Morningglory",morningglory; [4],0
same,"Plant response rating, Morningglory",morningglory; [5],2
same,"Plant response rating, Redroot pigweed",pigweed; [1],0
same,"Plant response rating, Redroot pigweed",pigweed; [6],0
same,Redroot pigweed plant response rating,pigweed; [7],1
same,Redroot pigweed plant response rating,pigweed; [2],2
same,Redroot pigweed plant response rating,pigweed; [3],9
same,"Plant response rating, Redroot pigweed",pigweed; [4],10
same,"Plant response rating, Redroot pigweed",pigweed; [5],10
same,"Plant response rating, Rape",rape; [1],0
same,"Plant response rating, Rape",rape; [6],0
same,Rape plant response rating,rape; [7],0
same,"Plant response rating, Rape",rape; [8],4
same,Rape plant response rating,rape; [2],0
same,Rape plant response rating,rape; [3],0
same,"Plant response rating, Rape",rape; [4],0
same,"Plant response rating, Rape",rape; [5],0
same,"Plant response rating, Sugarbeets",sugar beet; [1],0
same,"Plant response rating, Sugarbeets",sugar beet; [6],0
same,Sugarbeets plant response rating,sugar beet; [7],0
same,Sugarbeets plant response rating,sugar beet; [2],0
same,Sugarbeets plant response rating,sugar beet; [3],4
same,"Plant response rating, Sugarbeets",sugar beet; [4],4
same,"Plant response rating, Sugarbeets",sugar beet; [5],7
same,"Plant response rating, Velvetleaf",velvetleaf; [1],0
same,"Plant response rating, Velvetleaf",velvetleaf; [6],4
same,Velvetleaf plant response rating,velvetleaf; [7],4
same,Velvetleaf plant response rating,velvetleaf; [2],0
same,Velvetleaf plant response rating,velvetleaf; [3],1
same,"Plant response rating, Velvetleaf",velvetleaf; [4],6
same,"Plant response rating, Velvetleaf",velvetleaf; [5],7
same,"Plant response rating, Wheat",wheat; [1],0
same,"Plant response rating, Wheat",wheat; [6],0
same,Wheat plant response rating,wheat; [7],0
same,Wheat plant response rating,wheat; [2],0
same,Wheat plant response rating,wheat; [3],0
same,"Plant response rating, Wheat",wheat; [4],3
same,"Plant response rating, Wheat",wheat; [5],8
same,"Plant response rating, Wild oats",wild oat; [1],0
same,"Plant response rating, Wild oats",wild oat; [6],0
same,Wild oats plant response rating,wild oat; [7],0
same,Wild oats plant response rating,wild oat; [2],0
same,Wild oats plant response rating,wild oat; [3],3
same,"Plant response rating, Wild oats",wild oat; [4],8
same,"Plant response rating, Wild oats",wild oat; [5],8
same,"Plant response rating, Nutsedge",purple nutsedge; [1],0
same,"Plant response rating, Nutsedge",purple nutsedge; [6],0
same,"Plant response rating, Nutsedge",purple nutsedge; [8],0
same,Nutsedge plant response rating,purple nutsedge; [2],0
same,Nutsedge plant response rating,purple nutsedge; [3],0
same,"Plant response rating, Nutsedge",purple nutsedge; [4],0
same,"Plant response rating, Nutsedge",purple nutsedge; [5],3
same,"Plant response rating, S. Flatsedge (0 to 10 scale, 0 is no effect, 10 is complete control)",smallflower flatsedge; [9],0
same,"S. Flatsedge plant response rating (0 to 10 scale, 0 is no effect, 10 is complete control)",smallflower flatsedge; [10],0
same,S. Flatsedge plant response rating,smallflower flatsedge; [11],0
same,S. Flatsedge plant response rating,smallflower flatsedge; [12],0
same,"Plant response rating, Ducksalad (0 to 10 scale, 0 is no effect, 10 is complete control)",duck salad; [9],0
same,"Ducksalad plant response rating (0 to 10 scale, 0 is no effect, 10 is complete control)",duck salad; [10],0
same,Ducksalad plant response rating,duck salad; [11],0
same,Ducksalad plant response rating,duck salad; [12],0
